Laboratory results published in the supplement of paper PMC10307832.

Assays:
Test in all cases: relative viability (nuclei count vs DMSO), 5 days (fraction); higher = more cells survive
[1] = tested on: NCI-H727
Method in brief: (§1)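 Relative viability was taken as the ratio of nuclei in treated wells to nuclei in vehicle wells. Lung cancer cell lines in 1536-well plates received compounds by pin tool one day after seeding, either one drug alone or a fixed anchor-drug dose plus five library-drug doses (not always all listed) in √10 steps. Nuclei were counted on 4× images after 5 days of treatment, and values are medians of duplicate plates.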

[2] = tested on: NCI-H358
Method in brief: as §1

[3] = tested on: NCI-H2405
Method in brief: as §1

[4] = tested on: H3255
Method in brief: as §1

[5] = tested on: NCI-H23
Method in brief: as §1

[6] = tested on: NCI-H1666
Method in brief: as §1

[7] = tested on: NCI-H2347
Method in brief: as §1

[8] = tested on: NCI-H520
Method in brief: as §1

[9] = tested on: NCI-H1437
Method in brief: as §1

[10] = tested on: NCI-H1648
Method in brief: as §1

[11] = tested on: NCI-H3122
Method in brief: as §1

[12] = tested on: UMC-11
Method in brief: as §1

With `C=C1C(=O)O[C@@H](CCCCCCCC)[C@@H]1C(=O)O` [C-75] + CC(=O)c1c(C)c2cnc(Nc3ccc(N4CCNCC4)cn3)nc2n(C2CCCC2)c1=O [Palbociclib] (partner 0.5 µM) as the compound, how does the relative viability ([1]; first compound 0.08 µM) read?
The relative viability was 0.755.

What about the relative viability ([1]; first compound 0.253 µM) of the same compound?
The relative viability was 0.667.

And the relative viability ([1]; first compound 0.8 µM)?
The relative viability was 0.544.

What about the relative viability ([1]; first compound 2.53 µM) of the same compound?
The relative viability was 0.614.

What about the relative viability ([1]; first compound 8 µM) of the same compound?
The relative viability was 0.624.

What about the relative viability ([2]; first compound 0.08 µM) of the same compound?
Its relative viability is 0.137.

What about the relative viability ([2]; first compound 0.253 µM) of the same compound?
Its relative viability is 0.135.

What about the relative viability ([2]; first compound 0.8 µM) of the same compound?
The relative viability was 0.147.

What about the relative viability ([2]; first compound 8 µM) of the same compound?
Its relative viability is 0.135.

And the relative viability ([3]; first compound 0.08 µM)?
Its relative viability is 0.523.

What about the relative viability ([3]; first compound 0.253 µM) of the same compound?
Its relative viability is 0.384.

What about the relative viability ([3]; first compound 0.8 µM) of the same compound?
Its relative viability is 0.557.

What about the relative viability ([3]; first compound 2.53 µM) of the same compound?
Its relative viability is 0.423.

What about the relative viability ([3]; first compound 8 µM) of the same compound?
The relative viability was 0.515.

What about the relative viability ([4]; first compound 0.08 µM) of the same compound?
The relative viability was 0.319.

And the relative viability ([4]; first compound 0.253 µM)?
Its relative viability is 0.28.

What about the relative viability ([4]; first compound 0.8 µM) of the same compound?
The relative viability was 0.323.

And the relative viability ([4]; first compound 2.53 µM)?
The relative viability was 0.281.

And the relative viability ([4]; first compound 8 µM)?
Its relative viability is 0.329.

And the relative viability ([5]; first compound 0.08 µM)?
The relative viability was 0.499.

What about the relative viability ([5]; first compound 0.253 µM) of the same compound?
Its relative viability is 0.582.

What about the relative viability ([5]; first compound 0.8 µM) of the same compound?
Its relative viability is 0.511.

What about the relative viability ([5]; first compound 2.53 µM) of the same compound?
Its relative viability is 0.467.

What about the relative viability ([5]; first compound 8 µM) of the same compound?
The relative viability was 0.42.

What about the relative viability ([6]; first compound 0.08 µM) of the same compound?
Its relative viability is 0.626.

And the relative viability ([6]; first compound 0.253 µM)?
Its relative viability is 0.638.

And the relative viability ([6]; first compound 0.8 µM)?
The relative viability was 0.662.

What about the relative viability ([6]; first compound 8 µM) of the same compound?
Its relative viability is 0.594.

And the relative viability ([7]; first compound 0.08 µM)?
The relative viability was 0.468.

And the relative viability ([7]; first compound 0.253 µM)?
Its relative viability is 0.44.

What about the relative viability ([7]; first compound 0.8 µM) of the same compound?
The relative viability was 0.35.

What about the relative viability ([7]; first compound 2.53 µM) of the same compound?
The relative viability was 0.389.

What about the relative viability ([7]; first compound 8 µM) of the same compound?
The relative viability was 0.413.

And the relative viability ([8]; first compound 0.08 µM)?
The relative viability was 0.186.

And the relative viability ([8]; first compound 0.253 µM)?
Its relative viability is 0.238.

What about the relative viability ([8]; first compound 0.8 µM) of the same compound?
Its relative viability is 0.225.

And the relative viability ([8]; first compound 2.53 µM)?
Its relative viability is 0.225.

What about the relative viability ([8]; first compound 8 µM) of the same compound?
The relative viability was 0.211.

What about the relative viability ([9]; first compound 0.08 µM) of the same compound?
Its relative viability is 0.301.

What about the relative viability ([9]; first compound 0.253 µM) of the same compound?
Its relative viability is 0.381.

What about the relative viability ([9]; first compound 0.8 µM) of the same compound?
The relative viability was 0.299.

What about the relative viability ([9]; first compound 8 µM) of the same compound?
Its relative viability is 0.312.

And the relative viability ([10]; first compound 0.08 µM)?
Its relative viability is 0.251.

And the relative viability ([10]; first compound 0.253 µM)?
The relative viability was 0.398.

And the relative viability ([10]; first compound 0.8 µM)?
The relative viability was 0.292.

What about the relative viability ([10]; first compound 8 µM) of the same compound?
The relative viability was 0.295.

And the relative viability ([11]; first compound 0.08 µM)?
The relative viability was 0.18.

What about the relative viability ([11]; first compound 0.253 µM) of the same compound?
Its relative viability is 0.193.

What about the relative viability ([11]; first compound 0.8 µM) of the same compound?
The relative viability was 0.153.

What about the relative viability ([11]; first compound 2.53 µM) of the same compound?
The relative viability was 0.18.

What about the relative viability ([11]; first compound 8 µM) of the same compound?
Its relative viability is 0.213.

And the relative viability ([12]; first compound 0.08 µM)?
The relative viability was 0.308.

What about the relative viability ([12]; first compound 0.253 µM) of the same compound?
The relative viability was 0.315.

What about the relative viability ([12]; first compound 0.8 µM) of the same compound?
The relative viability was 0.321.

What about the relative viability ([12]; first compound 2.53 µM) of the same compound?
Its relative viability is 0.351.

And the relative viability ([12]; first compound 8 µM)?
Its relative viability is 0.268.
